Measurements taken from paper PMC7860073 (ACS Omega, 2021).

Molecular target: sialidase-1 (Homo sapiens, UniProt Q99519)
Assay: microscale thermophoresis
Type: binding

Row | Kd [µM] | Structure (SMILES)
1 | 2.15 | COc1cnc(NS(=O)(=O)c2ccc(N)cc2)nc1 [sulfameter]
2 | 8.88 | COc1ccc(C(=O)c2ccc(C)cc2)c(O)c1 [mexenone]
